The target of the experiment is 3-phosphoinositide-dependent protein kinase 1 (Homo sapiens) (UniProt O15530). Briefly: Inhibition of recombinant PDK1 after 15 mins.

For orientation: IC50 means the concentration that gives 50% inhibition. As to `O=C(NCCN1CCCC1)c1ccc(-c2cnc3ccc(NCc4ccc(Cl)c(Cl)c4)nn23)cc1` [4-(6-(3,4-dichlorobenzylamino)imidazo[1,2-b]pyridazin-3-yl)-N-(2-(pyrrolidin-1-yl)ethyl)benzamide], the IC50 is greater than 100 µM.
Consider `CN(C)CCNC(=O)c1ccc(-c2cnc3ccc(NCC4CC4)nn23)cc1` [4-(6-(cyclopropylmethylamino)imidazo[1,2-b]pyridazin-3-yl)-N-(2-(dimethylamino)ethyl)benzamide], for which the IC50 was greater than 100 µM.
The value for `O=C(NC[C@@H]1CCCN1)c1ccc(-c2cnc3ccc(NCc4ccc(Cl)c(Cl)c4)nn23)cc1` [(S)-4-(6-(3,4-dichlorobenzylamino)imidazo[1,2-b]pyridazin-3-yl)-N-(pyrrolidin-2-ylmethyl)benzamide] was greater than 100 µM; that for `O=C(NC[C@@H]1CCCN1)c1ccc(-c2cnc3ccc(NCc4cccc(Cl)c4)nn23)cc1` [(S)-4-(6-(3-chlorobenzylamino)imidazo[1,2-b]pyridazin-3-yl)-N-(pyrrolidin-2-ylmethyl)benzamide] was greater than 100 µM; that for `O=C(NC[C@@H]1CCCN1)c1ccc(-c2cnc3ccc(NCC4CC4)nn23)cc1` [(S)-4-(6-(cyclopropylmethylamino)imidazo[1,2-b]pyridazin-3-yl)-N-(pyrrolidin-2-ylmethyl)benzamide] was greater than 100 µM.

The record behind these values is BindingDB's records for doi:10.1016/j.bmcl.2010.07.026 (Daiichi Sankyo, 2010).
